Literature values, collected in article PMC7318222, “A Family of Water‐Immiscible, Dipolar Aprotic, Diamide Solvents from Succinic Acid” (Chemsuschem, 2020).
Marks after values point to notes of the source that are not given here.

Assays:
[1] = set-up: key to C (carcinogenicity) / M (mutagenicity) / R (reproduction toxicity) / S (skin sensitization): −: absence of property; +: presence of property; ?: no prediction possible; details: cited from earlier work
[2] = set-up: method as in PubChem; details: data obtained from PubChem; ref PubChem; cited from earlier work
[3] = exp: conclusion based on reliable experimental data

| SMILES | M (mutagenicity) [1, 3] | R (reproduction toxicity) [1, 3] | S (skin sensitization) [1, 3] | M (mutagenicity), in words ([1]; experimental data) | R (reproduction toxicity), in words ([1]; experimental data) | S (skin sensitization), in words ([1]; experimental data) | Log P (o/w) [2] | C (carcinogenicity) [1, 3] | C (carcinogenicity), in words ([1]; experimental data) |
| --- | --- | --- | --- | --- | --- | --- | --- | --- | --- |
| CCCCN1CCCC1=O [NBP, N‐Butylpyrrolidinone, reference compound] | − (exp) | − (exp) | − (exp) | negative | negative | negative |  |  |  |
| CN1CCCC1=O [NMP, N‐methyl‐2‐pyrrolidone, reference compound] | − (exp) | + (exp) | − (exp) | negative | positive | negative | −0.38^[d] | − (exp) | negative |
